From US6515018B1, “Synergistic compositions for lycopene and Vitamin E for the prevention of LDL oxidation” (Lycored Natural Products Industries Ltd., priority 1997, dated 2003)
pIC50: −log10 of the molar value.

Columns and labels:
Format in all cases: biochemical, human
LDL [1] = test: CuSO4-induced LDL oxidation measured by TBARS formation; conditions: CuSO4 (5 μM)-induced LDL oxidation; oleoresin concentration as lycopene; read-out: IC50 for the inhibition of TBARS formation
Protocol: (§1) Stock solutions of 1 mM of purified lycopene or of 10 mg/ml of tomato's oleoresin, were prepared in Tetrahydrofuran (THF, HPLC grade). All procedures were performed in dim light. LDL was incubated with the respective concentrations of tomato's oleoresin or with 3 μM of lycopene (3 μl/ml THF, derived from a stock solution of 1 mM) for 30 minutes at 37° C. in the dark. LDL incubated with THF alone served as control.
(§2) Oxidation of LDL was carried out in a shaking water bath at 37° C. under air, in plastic tubes (1 cm in diameter). For metal ions dependent oxidation LDL was incubated for 4 hours at 37° C. with freshly prepared CuSO4 (5 μM).
(§3) LDL oxidation was determined by measuring the amount of thiobarbituric acid reactive substances (TBARS) (See: Buege J. A. and Aust S. D. Microsomal lipid peroxidation. Methods Enzymol. 1978; 52: 302-310) and by lipid peroxides formation using a commercially available kit.
(§4) LDL (100 μg of protein/ml) was preincubated for 30 min at 37° C. with either vitamin E or lycopene in various forms. LDL oxidation was induced by the addition of 5 μM of CuSO4 and was […] for 30 min at 37° C. LDL oxidaton was measured by the TBARS assay or by measuring the inhibition of the formation of lipid peroxides. Results are shown in FIG. 1 for vitamin E inhibition and FIG. 2 for crystalline lycopene. […]

LDL [2] = test: CuSO4-induced LDL oxidation measured by lipid peroxides formation; conditions: CuSO4 (5 μM)-induced LDL oxidation; > = maximal concentration used did not achieve 50% inhibition
Protocol: as §1, §2, §3, §4

LDL [3] = test: Copper ions-induced LDL oxidation, Colby equation data, readout not marked (TBARS / lipid peroxides)
Protocol: as §1, §2, §3, §4

Row | pIC50 (LDL [1]) | pIC50 (LDL [2]) | Molecule | B = Percent control of lycopene alone (LDL [3]; Experiment 1: 1 μM crystalline lycopene alone) [%] | A = Percent control of vitamin E alone (LDL [3]; 1 μM vitamin E alone) [%]
1 | < 4.30 | < 4.30 | CC(C)=CCC/C(C)=C/C=C/C(C)=C/C=C/C(C)=C/C=C/C=C(C)/C=C/C=C(C)/C=C/C=C(\C)CCC=C(C)C [Crystalline lycopene, lycopene] | 0 | –
2 | 5.22 | 5.19 | Vitamin E | – | 0
